# How the values were obtained:
# [1] = test system: Huh7 (hepatocellular carcinoma) cell line; experiment: CellTiter-Glo luminescent cell viability assay, Huh7; assay type: cell-based, human; conditions: Homo sapiens, Huh-7; for viability at 4 µM: Huh7, compound at 4 μM; for viability at 4 µM / viability at 10 µM: 72 h; for viability at 10 µM: Huh7, compound at 10 μM; for EC50: Huh7 cell line, 72 h incubation, CellTiter-Glo, read-out: EC50, growth inhibition of Huh7
# In short: (§1)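 72 h compound exposure, 37 °C, 5% CO2, 10% FBS medium; ATP luminescence read after 30 min RT equilibration. Viability as % of H2O/DMSO diluent control; EC50 = dose giving 50% of control signal. Duplicate points minimum.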
# [2] = test system: A375 (malignant melanoma) cell line; experiment: CellTiter-Glo luminescent cell viability assay, A375; assay type: cell-based, human; conditions: Homo sapiens, A-375; for viability at 4 µM: A375, compound at 4 μM; for viability at 4 µM / viability at 10 µM: 72 h; for viability at 10 µM: A375, compound at 10 μM; for EC50: A375 cell line, 72 h incubation, CellTiter-Glo, read-out: EC50, growth inhibition of A375
# In short: (§2)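 Luminescent signal, normalised to diluent-treated cultures, defines % viability; EC50 is the concentration lowering it to 50%. Cells had been exposed to compound for 72 h at 37 °C in medium with 10% FBS, at a constant H2O or DMSO percentage.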
# [3] = test system: HepG2 (hepatocellular carcinoma) cell line; experiment: CellTiter-Glo luminescent cell viability assay, HepG2; assay type: cell-based, human; conditions: Homo sapiens; for viability at 4 µM / viability at 10 µM: HepG2, HepG, 72 h; for viability at 4 µM: compound at 4 μM; for viability at 10 µM: compound at 10 μM; for EC50: HepG2 cell line, 72 h incubation, CellTiter-Glo, read-out: EC50, growth inhibition of HepG2
# In short: as §1
# [4] = test system: 786-O (renal adenocarcinoma) cell line; experiment: CellTiter-Glo luminescent cell viability assay, 786-O; assay type: cell-based, human; conditions: Homo sapiens, 786-0; for EC50: 786-O cell line, 72 h incubation, CellTiter-Glo, read-out: EC50, growth inhibition of 786-O; for viability at 4 µM / viability at 10 µM: 786-O, 72 h; for viability at 4 µM: compound at 4 μM; for viability at 10 µM: compound at 10 μM
# In short: as §2
# [5] = test system: HCT-116 (colorectal carcinoma) cell line; experiment: CellTiter-Glo luminescent cell viability assay, HCT-116; assay type: cell-based, human; conditions: Homo sapiens; for viability at 4 µM: HCT-116, compound at 4 μM; for viability at 4 µM / viability at 10 µM: 72 h; for viability at 10 µM: HCT-116, compound at 10 μM; for EC50: HCT-116 cell line, 72 h incubation, CellTiter-Glo, read-out: EC50, growth inhibition of HCT-116
# In short: as §2
# [6] = test system: PANC-1 (prancreatic carcinoma) cell line; experiment: CellTiter-Glo luminescent cell viability assay, PANC-1; assay type: cell-based; conditions: Homo sapiens; for viability at 4 µM: PANC-1, 4 μM; for viability at 4 µM / viability at 10 µM: 72 h, % of signal of diluent-treated cultures; for viability at 10 µM: PANC-1, 10 μM; for EC50: PANC-1 cell line, 72 h incubation, CellTiter-Glo, read-out: EC50 (growth inhibition assay of PANC-1 cell line)
# Experimental: All cell lines were maintained in medium containing 1% penicillin-streptomycin (Dutscher, P06-07100) and 10% Fetal Bovine Serum (Hyclone Dutscher, RZK35922) cultured at 37° C. with 5% CO2. HepG2 (hepatocellular carcinoma), cell line was cultured in Dulbecco's modified Eagle's medium low glucose (Gibco, 21885025), Huh7 (hepatocellular carcinoma), HCT-116 (colorectal carcinoma), PANC-1 (prancreatic carcinoma) and A375 (malignant melanoma) cell lines were cultured in Dulbecco's modified Eagle's medium (Dutscher, L0103). MOLM-14 (acute myeloid leukemia) cell line was maintained in MEM alpha medium (Gibco, 22561-021). 786-0 (renal adenocarcinoma) cell lines were maintained in RPMI 1640 medium (Dutscher, L0498).
# Cell viability was measured using the CellTiter-Glo® luminescent cell viability assay as described by the manufacturer (Promega, Ref G7571) using an Infinite F200Pro luminometer (Tecan). Briefly, for adherent cells, cells were plated onto 96-well plates (white with clear bottom) in 90 μL of media per well and were allowed to grow overnight before the assay. For cells growing in suspension, cells were plated onto 96-well plates 1 h before the assay.
# Compounds were resuspended in H2O or DMSO and added at different concentrations to each well, and cell cultures were incubated for 72 h. Each diluent (H2O or DMSO) were used as a control, and all compounds were tested in a constant percentage of H2O or DMSO. On the day of the reading, plates are equilibrated 30 min at room temperature before the addition of 100 μL of CellTiter-Glo® and luminescence was measured using an Infinite F200Pro (Tecan). % cell viability were expressed as a percentage of the signal obtained for cell cultures treated with diluent. EC50 values were determined as the dose of compound required to reduce luminescent values to 50% of the signal obtained for cell cultures treated with diluent. The experimental data were analyzed using a computer program, Graphpad Prism v5 (GraphPad Software, Inc. La Jolla, Calif.). All points were at least done in duplicate.
# [7] = test system: MOLM-14 (acute myeloid leukemia) cell line; experiment: CellTiter-Glo luminescent cell viability assay, MOLM-14; assay type: cell-based, human; conditions: Homo sapiens; for viability at 4 µM: MOLM-14, compound at 4 μM; for viability at 4 µM / viability at 10 µM: 72 h; for viability at 10 µM: MOLM-14, compound at 10 μM; for EC50: MOLM-14 cell line, 72 h incubation, CellTiter-Glo, read-out: EC50, growth inhibition of MOLM-14
# In short: as §1
EC50 [1],EC50 [2],EC50 [3],EC50 [4],EC50 [5],EC50 [7],SMILES,viability at 4 µM [1],viability at 10 µM [1],viability at 4 µM [2],viability at 10 µM [2],viability at 4 µM [3],viability at 10 µM [3],viability at 4 µM [4],viability at 10 µM [4],viability at 4 µM [5],viability at 10 µM [5],viability at 4 µM [6],viability at 10 µM [6],viability at 4 µM [7],viability at 10 µM [7],further results
5 to 10 µM,5 to 10 µM,5 to 10 µM,5 to 10 µM,5 to 10 µM,5 to 10 µM,"CN1CCN(C2CCN(c3c(C#N)c(NCc4ccc(Cl)cc4)nc4ccccc34)C2)CC1 (stereo not drawn) [Compound 3200CN, 2-(4-chloro-benzylamino)-3-cyano-4-[3-(4-methylpiper-azin-1-yl)pyrro-lidin-1-yl] quinoline]",80.6%,0.4%,47.3%,0.3%,71.8%,0.3%,41.7%,0.4%,35.1%,0.4%,90.2%,38.4%,97.1%,0.4%,–
0.5 to 5 µM,0.5 to 5 µM,0.5 to 5 µM,0.5 to 5 µM,0.5 to 5 µM,0.5 to 5 µM,"Cc1cccc2c(N3CCC(NC(C)(C)C)CC3)c(C#N)c(NCc3ccc(Cl)cc3)nc12 [Compound 414CN, 2-(4-chlorobenzylamino)-3-cyano-4-[4-(tert-butylamino)piperidin-1-yl]-8-methylquinoline]",79.8%,0.5%,0.3%,0.4%,9%,0.5%,0.7%,0.3%,0.3%,0.3%,91%,0.8%,0.5%,0.3%,EC50 [6]: 5 to 10 µM
0.5 to 5 µM,0.5 to 5 µM,0.5 to 5 µM,0.5 to 5 µM,0.5 to 5 µM,0.5 to 5 µM,"Cc1ccc2c(N3CCC(NC(C)(C)C)CC3)c(C#N)c(NCc3ccc(Cl)cc3)nc2c1 [Compound 416CN, 2-(4-chlorobenzylamino)-3-cyano-4-[4-(tert-butylamino)piperidin-1-yl]-7-methylquinoline]",75.5%,0.6%,0.4%,0.4%,61.9%,0.5%,0.4%,0.3%,0.3%,0.3%,100%,0.7%,37.9%,0.4%,EC50 [6]: 5 to 10 µM
5 to 10 µM,0.5 to 5 µM,5 to 10 µM,0.5 to 5 µM,0.5 to 5 µM,5 to 10 µM,"COc1ccc(Nc2nc3ccccc3c(N3CCC(NC(C)(C)C)CC3)c2C#N)cc1 [Compound 3252CN, 2-(4-methoxyphenylamino)-3-cyano-4-[4-(tert-butylamino)piperidin-1-yl]quinoline]",80.6%,2.9%,20%,0.2%,68.4%,0.3%,74.2%,0.3%,2.5%,0.2%,94.7%,47.9%,80.2%,0.7%,EC50 [6]: 5 to 10 µM
–,–,–,–,–,–,"CC(C)(C)NC1CCN(c2c(C#N)c(Nc3cccc(C(F)(F)F)c3)nc3ccccc23)CC1 [Compound 3256CN, 2-(3-trifluoromethylphenylamino)-3-cyano-4-[4-(tert-butylamino)piperidin-1-yl]quinoline]",78.3%,29.3%,55.2%,2.4%,82.9%,56.6%,61.8%,13.7%,3.6%,0.2%,104%,81.8%,91.1%,85.6%,–
–,–,–,–,–,–,"Cn1cc(Nc2nc3ccccc3c(N3CCC(NC(C)(C)C)CC3)c2C#N)cn1 [Compound 3268CN, 2-[(1-methyl-1H-pyrazol-4-yl)amino]-3-cyano-4-[4-(tert-butylamino)piperidin-1-yl]quinoline]",94%,64.8%,61.8%,11.3%,68.6%,56%,109%,80.1%,73.7%,22.6%,95.8%,43.6%,91%,77.6%,–
0.5 to 5 µM,0.5 to 5 µM,0.5 to 5 µM,0.5 to 5 µM,0.5 to 5 µM,0.5 to 5 µM,"N#Cc1c(NCc2ccc(Cl)cc2)nc2ccccc2c1N1CCC(N)CC1 [Compound 3170CN, 2-(4-chlorobenzylamino)-3-cyano-4-(4-aminopiperidin-1-yl)quinoline]",79.4%,0.4%,0.5%,0.3%,0.6%,0.3%,36.5%,0.4%,0.7%,0.2%,89.6%,0.6%,84.2%,0.4%,EC50 [6]: 5 to 10 µM
0.5 to 5 µM,0.5 to 5 µM,0.5 to 5 µM,0.5 to 5 µM,0.5 to 5 µM,0.5 to 5 µM,"CNC1CCN(c2c(C#N)c(NCc3ccc(Cl)cc3)nc3ccccc23)CC1 [Compound 3172CN, 2-(4-chlorobenzylamino)-3-cyano-4-[4-(methylamino)piperidin-1-yl]quinoline]",30.7%,0.4%,0.4%,0.3%,0.5%,0.4%,0.5%,0.3%,0.2%,0.1%,56.4%,0.5%,0.5%,0.4%,EC50 [6]: 5 to 10 µM
